Laboratory results taken from patent US5623080A, “Fluorone and pyronin Y derivatives” (Spectra Group Limited, Inc., priority 1995, dated 1997).

Tests used:
[1] = absorption wavelength (λmax) and extinction (ε); assay type: physicochemical; conditions: for λmax in EtOH (first value) / ε (first value) / λmax in EtOH / ε: Table 1, EtOH; for ε (first value): at first λmax, in M-1cm-1 (unit assumed); for ε: at second λmax; for absorption wavelength: comparison
[2] = double bond conversion (C=C% Conversion) by FTIR; conditions: (1:2:3), DIDMA, 30 sec
Procedure: (§1) To a resin formulation consisting of 15 parts urethane diacrylate, 15 parts DPHPA, 20 parts TPGDA and 40 parts TMPTA was added DIDMA, initiator and (4-octyloxyphenyl)phenyliodonium hexafluoroantimonate (OPPI). The samples were coated to a thickness of 15 microns and exposed to a 75 W tungsten halogen dental lamp (focused through an optical fiber) at a distance of 0.75 inch at which the Light intensity was about 0.40 W/cm^2. The molar ratios are indicative of the amounts of fluorone to onium salt to amine coinitiator. The double bond conversion was determined by FTIR spectroscopy. The pencil hardness of a given test sample is measured by holding a pencil at a 45° angle to the sample and drawing across it towards the person testing it. Using the pencils in an order from softest to hardest, the first pencil that scratches the surface is assigned as the pencil hardness of the sample. The pencil hardness scale is as follows from softest to hardest: 4B, 3B, 2B, B, HB, H, 2H, 3H, 4H, 6H. For instance, if a 2H pencil is the first pencil to scratch the surface then the pencil hardness is 2H.

pencil hardness = conditions: 0.05 wt. %
Procedure: as §1
At the extreme ends of the scale, it is impossible to determine the actual pencil hardness. […] Likewise, if the 4B pencil scratches the sample, the only assignment that can be made is <4B, unless it is a lot softer than 4B in which case a <<4B can be assigned. A pencil hardness of 4H is generally considered satisfactory. Pencil hardness data was greater than 6H after 30 seocnd exposure for all samples except for the control samples without amine (1:2:0). The controls were all less than 4B an 0.05 wt %, 0.10 wt %, and 0.15 wt %.
Photosensitive compositions were prepared from the resin formulation of Example 35 containing 1% NPG and 0.05% DIBF or 0.05% DIEF. The samples were exposed under the conditions shown in the following table and pencil hardness was measured.
Diphenyliodonium hexafluoroantimonate was added to DIBF samples.
Samples were also prepared using 1% DIDMA in addition to the fluorone for a 20:1 weight ratio.
Samples were also prepared from the same resin formulation containing 0.1% DIBF in addition to the coinitiator listed in the following Table 9 with the exposure condition and pencil hardness results shown.
Using the resin formulation of Example 36, photosensitive compositions were prepared using TIHF, DIDMA and OPPI at a concentration of 0.21% and in the molar ratios shown in Table 10 which follows. Exposure was conducted with the dental lamp at a distance of 1 inch from the sample to provide an intensity of about 0.26 W/cm^2. Molar ratios are fluorone:onium salt:amine.

depth of cure = assay: depth of cure
Source text: One of the advantages of the fluorone dye photoinitiators in this invention is the depth of the cure that is obtainable. This is in contrast to UV photoinitators that causes a "screening" effect which prevents the UV light from penetrating beyond a certain […] depth, usually several millimeters. By contrast, the fluorone dye bleaches as it photoinitiates and is concommitantly converted into a non-visible absorbing species thus allowing more visible light to penetrate which continues the cure. This cascading bleaching effect permits substantial depth of cure which can easily reach several inches.
An acrylate monomer mixture was composed of 15 parts urethane diacrylate, 20 parts TPGPA, 40 parts TMPTA and 15 parts DPHPA, and a 20 to 1 weight ratio of NPG coinitiator to DIEF or DIBF fluorone dye. For dye concentrations of 0.01, 0.05 and 0.1 weight, all the formulations cured to a depth of 3 cm in 30 seconds when exposed to a 350 watt tungsten halogen light which provides about 500 mw/cm^2 irradiance. When the irradiance was increased to about 2 watts/cm^2 cure speed was shortened to 5 seconds for the same depth.
An acrylate mixture was composed of 60% urethane diacrylate, 30% DPHPA, 10% BDDA, and 0.05 weight % of DIEF or DIBF fluorone dye with 2 weight % of DIDMA. The formulation cure to a depth greater than 1 cm in 10 seconds when exposed to a 75 watt tungsten halogen lamp which provided an irradiance of about 260 mw/cm^2.
An acrylate mixture was composed of 33% TMPTA, 33% DPHPA, 33% Epoxy acrylate, and 2% of DIDMA with either 0.01, 0.05 or 0.1 weight % of DIEF. All samples cured to a depth greater than 1 cm in 10 seconds when exposed to a 75 watt tungsten halogen.
An acrylate mixture was composed of 70% urethane diacrylate, 5% DPHPA, 25% BDDA, and 2% DIDMA with either 0.01, 0.03 or 0.1 weight % DIEF. The 0.01 and 0.03 samples cured after 2 passes through a 300 watt per inch medium pressure mercury arc lamp at a speed of 50 feet/minute to a depth greater than 3 mm. The 0.1 sample cured to a depth of greater than 1.5 mm.

fluorescence (λf, φf) = assay type: physicochemical; conditions: 10^-7 M (footnote c)
Source text: In Table 2 below, the properties of the foregoing initiators are shown:
Entries in the table are in the solvents according to the following order.

[3] = oxidation and reduction potentials (Eox, Ered); assay type: physicochemical; conditions: in V (unit assumed)
Source text: (§2) In Table 2 below, the properties of the foregoing initiators are shown: […]

pKa = assay type: physicochemical
Source text: as §2

5,7-diiodo-3-methoxy-6-fluorone [DIMF]
λmax in EtOH (first value) [1]: 470 | ε (first value) [1]: 23,500

CCCCOc1ccc2c(C#N)c3cc(I)c(=O)c(I)c-3oc2c1 [Compound 7, 9-cyano-5,7-diiodo-3-butoxy-6-fluoorone]
λmax in EtOH (first value) [1]: 600

N#Cc1c2cc(Br)c(=O)c(Br)c-2oc2c(Br)c(O)c(Br)cc12 [Compound 14, 9-cyano-3-hydroxy-2,4,5,7-tetrabromo-6-fluorone]
λmax in EtOH [1]: 576 | λmax in EtOH (first value) [1]: 626 | ε (first value) [1]: 51400 | ε [1]: 24500 M⁻¹ cm⁻¹

CCCCCCCCc1cc2c(C#N)c3cc(I)c(=O)c(I)c-3oc2c(I)c1O [Compound 20, 9-cyano-3-hydroxy-4,5,7-triiodo-2-octyl-6-fluorone]
λmax in EtOH (first value) [1]: 630 | ε (first value) [1]: 40,000 | absorption wavelength [1]: 630 nm | λmax ([1]; in EtOH): 630 nm

CC(C)(C)c1cc2cc3cc(C(C)(C)C)c(=O)c(I)c-3oc2c(I)c1O [Compound 26, 2,7-di-t-butyl-4,5-diiodo-3-hydroxy-6-fluorone]
λmax in EtOH (first value) [1]: 532 | ε (first value) [1]: 90800

CC(C)(C)c1cc2c(C#N)c3cc(C(C)(C)C)c(=O)c(I)c-3oc2c(I)c1O [Compound 27, 9-cyano-2,7-di-t-butyl-4,5-diiodo-3-hydroxy-6-fluorone]
λmax in EtOH [1]: 582 | λmax in EtOH (first value) [1]: 636 | ε (first value) [1]: 68300 | ε [1]: 33600 M⁻¹ cm⁻¹

O=c1ccc2cc3ccc(O)cc3sc-2c1 [Compound 29, 3-hydroxy-6-thiafluorone]
λmax in EtOH (first value) [1]: 524

CC(C)(C)c1cc2cc3cc(C(C)(C)C)c(=O)cc-3oc2cc1O [Compound 30, 2,7-di-t-butyl-3-hydroxy-6-fluorone]
λmax in EtOH (first value) [1]: 518 | ε (first value) [1]: 101000

CC(C)(C)c1cc2c(C#N)c3cc(C(C)(C)C)c(=O)cc-3oc2cc1O [Compound 31, 9-cyano-2,7-di-t-butyl-3-hydroxy-6-fluorone]
λmax in EtOH [1]: 564 | λmax in EtOH (first value) [1]: 614 | ε (first value) [1]: 47400 | ε [1]: 23200 M⁻¹ cm⁻¹

O=C(O)CCCc1cc2cc3ccc(O)cc3oc-2cc1=O [Compound 37a, 3-hydroxy-7-butyric acid-6-fluorone]
λmax in EtOH (first value) [1]: 512

N#Cc1c2ccc(=O)cc-2oc2cc(O)c(CCCC(=O)O)cc12 [Compound 37b, 9-cyano-3-hydroxy-7-butyric acid-6-fluorone]
λmax in EtOH (first value) [1]: 596 | ε (first value) [1]: 74,000

CCOc1ccc2cc3cc(I)c(=O)c(I)c-3oc2c1 [DIEF, 5,7-diiodo-3-ethoxy-6-fluorone]
C=C% Conversion ([2]; 0.05 wt %): 40% | Pencil hardness (pencil hardness; 1% DIDMA, Dental Lamp, Air, 60 sec): 3B | Pencil hardness (pencil hardness; 1% DIDMA, Dental Lamp, No Air, 30 sec): 3B | Pencil hardness (pencil hardness; 1% DIDMA, Dental Lamp, No Air, 60 sec): 2B | Pencil hardness (pencil hardness; 1% DIDMA, Fusion (Q bulb), Air, 10 ft/min): 2B | Pencil hardness (pencil hardness; 1% DIDMA, Fusion (Q bulb), Air, 20 ft/min): > 4B | Pencil hardness (pencil hardness; 1% NPG, Dental Lamp, Air, 60 sec): 2B | Pencil hardness (pencil hardness; 1% NPG, Dental Lamp, No Air, 10 sec): < 4B | Pencil hardness (pencil hardness; 1% NPG, Dental Lamp, No Air, 30 sec): 2H | Pencil hardness (pencil hardness; 1% NPG, Dental Lamp, No Air, 60 sec): 3H | Pencil hardness (pencil hardness; 1% NPG, Fusion (Q bulb), Air, 10 ft/min): > 6H | Pencil hardness (pencil hardness; 1% NPG, Fusion (Q bulb), Air, 20 ft/min): 3H | Pencil hardness (pencil hardness; 1% NPG, Overhead Proj., Air, 60 sec): 3B | Pencil hardness (pencil hardness; 1% NPG, Overhead Proj., No Air, 60 sec): 3H | depth of cure (depth of cure; 0.01 and 0.03 weight %, 2 passes, 300 watt per inch medium pressure mercury arc lamp, 50 feet/minute, 2% DIDMA): greater than 3 mm | depth of cure (depth of cure; 0.1 weight %, 300 watt per inch medium pressure mercury arc lamp, 50 feet/minute, 2% DIDMA): greater than 1.5 mm | depth of cure (depth of cure; 10 seconds, 75 watt tungsten halogen, about 260 mw/cm^2, 0.05 weight % dye, 2 weight % DIDMA, 60% urethane diacrylate, 30% DPHPA, 10% BDDA): greater than 1 cm | depth of cure (depth of cure; 10 seconds, 75 watt tungsten halogen, 0.01, 0.05 or 0.1 weight %, 2% DIDMA, TMPTA/DPHPA/Epoxy acrylate): greater than 1 cm | depth of cure (depth of cure; 30 seconds, 350 watt tungsten halogen, about 500 mw/cm^2, dye 0.01, 0.05 and 0.1 weight, NPG 20 to 1): 3 cm | cure time for the same depth (3 cm) (depth of cure; about 2 watts/cm^2, NPG 20 to 1): 5 s | λmax in EtOH (first value) [1]: 470 | ε (first value) [1]: 21,100

CCCCCCCCOc1ccc2cc3cc(I)c(=O)c(I)c-3oc2c1 [DIOF, 5,7-diiodo-3-octoxy-6-fluorone]
C=C% Conversion ([2]; 0.05 wt %): 40% | C=C% Conversion ([2]; 0.15 wt %): 40% | λmax in EtOH (first value) [1]: 470 | ε (first value) [1]: 31,600

O=c1ccc2cc3ccc(O)cc3oc-2c1 [HF, 3-Hydroxy-6-fluorone]
φf (fluorescence (λf, φf)): .95 | Eox [3]: 1.34 | Ered [3]: -.99 | pKa (pKa): 5.97 | λmax in EtOH (first value) [1]: 504 | ε (first value) [1]: 24700 | λmax ([1]; methanol, synthesis example): 500 nm

Cc1ccc(-n2c3cc(=N)ccc-3cc3ccc(N)cc32)cc1 [N.phi.CH3 NH2 /NH2 + H H H H H]
λmax in EtOH (first value) [1]: 472

C=CC(=O)OCCCCCCOc1ccc2cc3cc(I)c(=O)c(I)c-3oc2c1 [O O/O(CH2)6 OCOCH=CH2 H I H I H]
λmax in EtOH (first value) [1]: 472

N#Cc1c2ccc(=O)cc-2oc2cc(O)ccc12 [O O/O^- CN H H H H, 9-Cyano-3-hydroxy-6-fluorone]
λmax in EtOH [1]: 548 | λmax in EtOH (first value) [1]: 594 | ε (first value) [1]: 50300 | ε [1]: 24700 M⁻¹ cm⁻¹

CCOC(=O)CCCc1cc2cc3ccc(=O)cc-3oc2cc1O [O O/O^- H H H H (CH2)3 COOEt]
λmax in EtOH (first value) [1]: 510

CCCCCCCCc1cc2cc3cc(I)c(=O)c(I)c-3oc2c(I)c1O [O O/O^- H I H I (CH2)7 CH3, 3-hydroxy-4,5,7-triiodo-2-octyl-6-fluorone]
λmax in EtOH (first value) [1]: 534 | ε (first value) [1]: 92,600

N#Cc1c2ccc(=O)cc-2sc2cc(O)ccc12 [S O/O^- CN H H H H]
λmax in EtOH (first value) [1]: 610

N#Cc1c2cc(I)c(=O)c(I)c-2oc2c(I)c(O)c(I)cc12 [TIHCF, 9-cyano-3-hydroxy-2,4,5,7-tetraiodo-6-fluorone]
depth of cure results (depth of cure; other fluorone dyes): have also been observed | λmax in EtOH [1]: 586 | λmax in EtOH (first value) [1]: 638 | ε (first value) [1]: 80000 | ε [1]: 35000 M⁻¹ cm⁻¹ | absorption wavelength [1]: 636 nm | λmax ([1]; ethanol, synthesis example): 638 nm
